In patent publication US9365481B2, “Cyclohexenone compositions and process for making thereof” (Golden Biotechnology Corporation, priority 2013, dated 2016):

Tested on: H838
Experiment: CCK-8 cell viability assay, H838
Format: cell-based, human
Settings: H838 cells, statement in words
Method: Cell viability was measured using Cell Counting Kit-8 (CCK-8, Enzo Life Sciences, Farmingdale, N.Y.). In this assay, WST-8 is reduced by dehydrogenases in cells to produce a yellow-colored product (formazan), which is soluble in culture medium. The amount of formazan generated is directly proportional to the number of living cells. After treatment, CCK-8 solution was added to each well and incubated for 4 h. The concentration of formazan was measured with a spectrophotometer at an absorbance wavelength of 450 nm. Cell viability was expressed as a percentage of the corresponding control.
To determine whether the cytotoxic effects of Compound 1 correlate with the presence of Ras mutations, cell lines derived from human lung cancer (A549 and H838), liver cancer (HepG2 and Hep3B), and leukemia (K562 and THP-1) with wild-type Ras (H838, Hep3B, and K562) or mutant Ras (A549, HepG2, and THP-1) were used. Cell viability was measured after 48 h of Compound 1 treatment.
Next, the IC50 values for Compound 1 analogs (Compounds 29, 30 and 31), a metabolite (Compound 27), and analogues isolated from filamentous A. camphorata (Compounds 25, 26, 28) were determined in H838 cells. […] (Table 1)

COC1=C(OCc2ccccc2)C(O)C(C/C=C(\C)CC/C=C(\C)CCC=C(C)C)C(C)C1=O (stereo not shown) [Compound 31, 3-(benzyloxy)-4-hydroxy-2-methoxy-6-methyl-5-[(2E,6E)-3,7,11-trimethyldodeca-2,6,10-trien-1-yl]cyclohex-2-en-1-one]
cytotoxic effect compared with Compound 1: even more cytotoxic than Compound 1
